# In article PMC4955735 (Anesthesiology, 2016):
# Entries after “also recorded” stand apart in the source; their conditions may differ. Read-outs that look alike come from different tables or passages of the source.
# How the values were obtained:
# hERG channel = hERG channel (Homo sapiens, UniProt Q12809); settings: read-out: IC50, hERG channel; CHO-hERG, patch clamp, up to 25 μM
# [1] = tested on: S.typhimurium TA1535, TA 1537, TA 98 and TA 100; assay: Bacteria reverse mutation assay; settings: Ames test, −/+S9
# Job plot [2] = type: physicochemical; settings: calabadion 2•ketamine, total 1 mM, pD 7.4; establishes 1:1 complex
# S.typhimurium TA 98 = assay: Bacteria reverse mutation assay; settings: for ratio of number of colonies after treatment relative to untreated bacteria: <1.6 not mutagenic
# S.typhimurium TA 100 = settings: for ratio of number of colonies after treatment relative to untreated bacteria: <1.6 not mutagenic
# Job plot [3] = type: physicochemical; settings: calabadion 2•etomidate; establishes 1:1 complex
# Sprague-Dawley rats [4] = assay: Burst suppression ratio and blood pressure during continuous etomidate infusion; type: in vivo, rat; settings: continuous etomidate i.v.; escalating calabadion 2 infusion; returned from 83%; n=10
# liver cells (HepG2) = assay: MTS cell viability assay; type: cell-based, human; settings: calabadion 2 up to 1 mM
# Sprague-Dawley rats [5] = assay: Total EEG power and blood pressure during continuous ketamine infusion; type: in vivo, rat; settings: highest calabadion 2 dose, baseline 96 mmHg, n=10
# [6] = tested on: human white blood cells (THP-1); assay: MTS cell viability assay; type: cell-based; settings: calabadion 2 up to 1 mM
# Sprague-Dawley rats [7] = assay: Maximal tolerated dose escalation study with histopathology in rats; type: in vivo, rat
# Swiss Webster mice = assay: Dose escalation; type: in vivo, mouse
# rats = assay: Balance beam test of functional mobility after anesthesia; type: in vivo, rat; settings: n=7
# S.typhimurium TA 1535 = settings: for ratio of number of colonies after treatment relative to untreated bacteria: <1.6 not mutagenic
# S.typhimurium TA 1537 = assay: Bacteria reverse mutation assay; settings: for ratio of number of colonies after treatment relative to untreated bacteria: <1.6 not mutagenic
# [8] = tested on: THP-1, HepG2 and HEK293 cells; assay: Adenylate kinase release cell necrosis; type: cell-based, human; settings: calabadion 2 up to 1 mM
# kidney cells (HEK293) = assay: MTS cell viability assay; type: cell-based, human; settings: calabadion 2 up to 1 mM
# Sprague-Dawley rats [9] = assay: Time to recovery from loss of righting reflex; type: in vivo, rat
# Sequence of hERG channel (Q12809 whole entry): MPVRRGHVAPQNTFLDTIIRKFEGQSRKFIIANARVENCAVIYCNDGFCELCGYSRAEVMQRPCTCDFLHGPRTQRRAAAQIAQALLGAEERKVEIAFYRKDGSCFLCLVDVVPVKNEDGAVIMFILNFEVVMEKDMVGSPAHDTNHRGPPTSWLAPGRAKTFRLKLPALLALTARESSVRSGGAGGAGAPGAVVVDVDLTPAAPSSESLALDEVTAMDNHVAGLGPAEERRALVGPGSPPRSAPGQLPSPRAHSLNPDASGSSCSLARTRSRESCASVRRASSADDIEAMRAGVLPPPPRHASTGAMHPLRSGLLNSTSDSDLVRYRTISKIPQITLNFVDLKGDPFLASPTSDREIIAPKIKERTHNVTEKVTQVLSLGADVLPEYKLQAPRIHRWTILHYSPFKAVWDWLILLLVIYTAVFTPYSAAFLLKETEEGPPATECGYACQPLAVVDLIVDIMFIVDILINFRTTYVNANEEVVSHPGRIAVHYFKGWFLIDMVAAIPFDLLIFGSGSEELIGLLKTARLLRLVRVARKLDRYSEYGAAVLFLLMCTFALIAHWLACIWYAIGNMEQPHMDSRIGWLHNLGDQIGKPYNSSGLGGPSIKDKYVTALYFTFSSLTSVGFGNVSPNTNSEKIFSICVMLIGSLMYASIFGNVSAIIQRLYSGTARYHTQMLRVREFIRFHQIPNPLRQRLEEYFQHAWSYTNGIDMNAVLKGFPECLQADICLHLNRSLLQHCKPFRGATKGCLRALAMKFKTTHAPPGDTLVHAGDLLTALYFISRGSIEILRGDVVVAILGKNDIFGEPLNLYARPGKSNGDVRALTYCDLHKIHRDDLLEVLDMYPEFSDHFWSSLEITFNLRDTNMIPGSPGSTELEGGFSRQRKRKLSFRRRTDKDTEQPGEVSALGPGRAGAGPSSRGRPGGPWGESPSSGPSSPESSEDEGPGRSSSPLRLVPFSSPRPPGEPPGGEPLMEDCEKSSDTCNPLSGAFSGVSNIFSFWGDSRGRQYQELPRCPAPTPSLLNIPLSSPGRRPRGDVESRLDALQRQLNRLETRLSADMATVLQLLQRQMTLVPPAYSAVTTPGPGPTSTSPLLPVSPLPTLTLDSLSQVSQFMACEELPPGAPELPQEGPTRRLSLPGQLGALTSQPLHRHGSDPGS
smiles,measurement,setting,value
C[C@]12N3Cc4c(c(OCCCS(=O)(=O)[O-])c5ccccc5c4OCCCS(=O)(=O)[O-])CN1C(=O)N1CN4C(=O)N5CN6C(=O)N7CN8C(=O)N9Cc%10c(c(OCCCS(=O)(=O)[O-])c%11ccccc%11c%10OCCCS(=O)(=O)[O-])CN%10C(=O)N(CN%11C(=O)N(CN%12C(=O)N(CN(C3=O)[C@]12C)[C@@H]4[C@H]%125)[C@@H]6[C@H]%117)[C@]8(C)[C@@]9%10C.[Na+].[Na+].[Na+].[Na+] [Calabadion 2],IC50,hERG channel,> 25 µM
same,mutagenic potential,[1],no mutagenic potential
same,Job plot maximum (mole fraction),Job plot [2],0.5
same,number of colonies growing after treatment,"S.typhimurium TA 98; TA 98, +S9, 0.012 mg per plate",24 ± 4
same,number of colonies growing after treatment,"S.typhimurium TA 98; TA 98, +S9, 0.037 mg per plate",27 ± 3
same,number of colonies growing after treatment,"S.typhimurium TA 98; TA 98, +S9, 0.11 mg per plate",23 ± 5
same,number of colonies growing after treatment,"S.typhimurium TA 98; TA 98, +S9, 0.33 mg per plate",24 ± 7
same,number of colonies growing after treatment,"S.typhimurium TA 98; TA 98, +S9, 1 mg per plate",29 ± 6
same,ratio of number of colonies after treatment relative to untreated bacteria,"S.typhimurium TA 98; TA 98, +S9",1.07
same,number of colonies growing after treatment,"S.typhimurium TA 98; TA 98, −S9, 0.012 mg per plate",24 ± 4
same,number of colonies growing after treatment,"S.typhimurium TA 98; TA 98, −S9, 0.037 mg per plate",18 ± 8
same,number of colonies growing after treatment,"S.typhimurium TA 98; TA 98, −S9, 0.11 mg per plate",30 ± 10
same,number of colonies growing after treatment,"S.typhimurium TA 98; TA 98, −S9, 0.33 mg per plate",21 ± 5
same,number of colonies growing after treatment,"S.typhimurium TA 98; TA 98, −S9, 1 mg per plate",20 ± 5
same,ratio of number of colonies after treatment relative to untreated bacteria,"S.typhimurium TA 98; TA 98, −S9",1.05
same,number of colonies growing after treatment,"S.typhimurium TA 100; TA 100, +S9, 0.012 mg per plate",114 ± 2
same,number of colonies growing after treatment,"S.typhimurium TA 100; TA 100, +S9, 0.037 mg per plate",112 ± 8
same,number of colonies growing after treatment,"S.typhimurium TA 100; TA 100, +S9, 0.11 mg per plate",91 ± 6
same,number of colonies growing after treatment,"S.typhimurium TA 100; TA 100, +S9, 0.33 mg per plate",101 ± 7
same,number of colonies growing after treatment,"S.typhimurium TA 100; TA 100, +S9, 1 mg per plate",97 ± 4
same,ratio of number of colonies after treatment relative to untreated bacteria,"S.typhimurium TA 100; TA 100, +S9",0.88
same,number of colonies growing after treatment,"S.typhimurium TA 100; TA 100, −S9, 0.012 mg per plate",92 ± 11
same,number of colonies growing after treatment,"S.typhimurium TA 100; TA 100, −S9, 0.037 mg per plate",100 ± 6
same,number of colonies growing after treatment,"S.typhimurium TA 100; TA 100, −S9, 0.11 mg per plate",94 ± 4
same,number of colonies growing after treatment,"S.typhimurium TA 100; TA 100, −S9, 0.33 mg per plate",105 ± 9
same,number of colonies growing after treatment,"S.typhimurium TA 100; TA 100, −S9, 1 mg per plate",106 ± 6
same,ratio of number of colonies after treatment relative to untreated bacteria,"S.typhimurium TA 100; TA 100, −S9",1.06
same,Job plot maximum (mole fraction),Job plot [3],0.5
same,"mean arterial blood pressure (MAP), % of pre-etomidate baseline",Sprague-Dawley rats [4],101%
same,cell viability,liver cells (HepG2),did not observe a significant reduction
same,MAP compared to pre-ketamine baseline,Sprague-Dawley rats [5],~130%
same,cell viability,[6],did not observe a significant reduction
same,tolerability at effective doses,Sprague-Dawley rats [7],well tolerated
same,"pathology finding, kidney","Sprague-Dawley rats [7]; 5 of 6 animals that received the 2 highest doses, not at 1.6 g/kg",• A mild vacuolation of the epithelium in the P1 and P2 segments of the proximal convoluted tubule.
same,"pathology finding, liver","Sprague-Dawley rats [7]; all animals that received 3.1–5.1 g/kg, 1 animal that received 1.6 g/kg",• Mild to moderate vacuolation that is consistent with mild fat accumulation.
same,"pathology finding, lung",Sprague-Dawley rats [7]; animals receiving 3.1–5.1 g/kg,"Mild cellular necrosis, some apparent fluid in alveolar spaces and enlarged, foamy pulmonary alveolar macrophages; also recorded: Occasional distension of pulmonary alveolar capillaries with red blood cells and in a few animals evidence of possible pulmonary emboli; also recorded: Macrophages, especially in connective tissue or adipose tissue that were distended with a bluish, hematoxylin-positive material that appeared to be localized in the lysosomes"
same,"pathology finding, heart","Sprague-Dawley rats [7]; i.v. up to 5.1 g/kg, all doses",• Within normal limits
same,"pathology finding, spleen","Sprague-Dawley rats [7]; i.v. up to 5.1 g/kg, all doses",• Within normal limits
same,median lethal dose (LD50),"Sprague-Dawley rats [7]; i.v., escalating doses on consecutive days, n=10",2700 mg/kg
same,average weight change of mice,"Swiss Webster mice; all groups (29, 87, 145, 203 mg/kg i.p. daily for 14 days), after 28 days",≥ 95%
same,tolerance in maximum tolerated dose study,"Swiss Webster mice; mice, i.p. daily for 14 days, up to 203 mg/kg",good tolerance
same,reduction of time slope of recovery of balance vs saline,rats; after 4 mg/kg etomidate i.v.,4.9 min
same,reduction of time slope of recovery of balance vs saline,rats; after 30 mg/kg ketamine i.v.,3.9 min
same,reduction of time slope of recovery of balance vs saline,"rats; after 50 mg/kg ketamine i.m., calabadion 2 i.p.",15.7 min
same,number of colonies growing after treatment,"S.typhimurium TA 1535; TA 1535, +S9, 0.012 mg per plate",10 ± 2
same,number of colonies growing after treatment,"S.typhimurium TA 1535; TA 1535, +S9, 0.037 mg per plate",6 ± 2
same,number of colonies growing after treatment,"S.typhimurium TA 1535; TA 1535, +S9, 0.11 mg per plate",7 ± 1
same,number of colonies growing after treatment,"S.typhimurium TA 1535; TA 1535, +S9, 0.33 mg per plate",10 ± 5
same,number of colonies growing after treatment,"S.typhimurium TA 1535; TA 1535, +S9, 1 mg per plate",7 ± 3
same,ratio of number of colonies after treatment relative to untreated bacteria,"S.typhimurium TA 1535; TA 1535, +S9",0.87
same,number of colonies growing after treatment,"S.typhimurium TA 1535; TA 1535, −S9, 0.012 mg per plate",6 ± 1
same,number of colonies growing after treatment,"S.typhimurium TA 1535; TA 1535, −S9, 0.037 mg per plate",10 ± 5
same,number of colonies growing after treatment,"S.typhimurium TA 1535; TA 1535, −S9, 0.11 mg per plate",8 ± 3
same,number of colonies growing after treatment,"S.typhimurium TA 1535; TA 1535, −S9, 0.33 mg per plate",7 ± 4
same,number of colonies growing after treatment,"S.typhimurium TA 1535; TA 1535, −S9, 1 mg per plate",8 ± 3
same,ratio of number of colonies after treatment relative to untreated bacteria,"S.typhimurium TA 1535; TA 1535, −S9",0.72
same,number of colonies growing after treatment,"S.typhimurium TA 1537; TA 1537, +S9, 0.012 mg per plate",2 ± 1
same,number of colonies growing after treatment,"S.typhimurium TA 1537; TA 1537, +S9, 0.037 mg per plate",4 ± 1
same,number of colonies growing after treatment,"S.typhimurium TA 1537; TA 1537, +S9, 0.11 mg per plate",6 ± 1
same,number of colonies growing after treatment,"S.typhimurium TA 1537; TA 1537, +S9, 0.33 mg per plate",6 ± 1
same,number of colonies growing after treatment,"S.typhimurium TA 1537; TA 1537, +S9, 1 mg per plate",5 ± 2
same,ratio of number of colonies after treatment relative to untreated bacteria,"S.typhimurium TA 1537; TA 1537, +S9",0.71
same,number of colonies growing after treatment,"S.typhimurium TA 1537; TA 1537, −S9, 0.012 mg per plate",7 ± 2
same,number of colonies growing after treatment,"S.typhimurium TA 1537; TA 1537, −S9, 0.037 mg per plate",8 ± 2
same,number of colonies growing after treatment,"S.typhimurium TA 1537; TA 1537, −S9, 0.11 mg per plate",7 ± 2
same,number of colonies growing after treatment,"S.typhimurium TA 1537; TA 1537, −S9, 0.33 mg per plate",8 ± 1
same,number of colonies growing after treatment,"S.typhimurium TA 1537; TA 1537, −S9, 1 mg per plate",3 ± 2
same,ratio of number of colonies after treatment relative to untreated bacteria,"S.typhimurium TA 1537; TA 1537, −S9",0.3
same,cell lysis,[8],no cell lysis
same,cell viability,kidney cells (HEK293),only a slight dip
same,decrease of time to recovery from LORR relative to saline,Sprague-Dawley rats [9]; etomidate-anesthetized rats,~50%
same,decrease of time to recovery from LORR relative to saline,Sprague-Dawley rats [9]; ketamine anesthetized rats,about 30%
same,ED50 (median dose for accelerated recovery from LORR with 50% probability),Sprague-Dawley rats [9]; reversal of 4 mg/kg i.v. etomidate bolus,984 mg/kg
same,ED50 (median dose for accelerated recovery from LORR with 50% probability),"Sprague-Dawley rats [9]; reversal of 30 mg/kg i.v. bolus of ketamine, 30 mg/kg",167 mg/kg
